Legend:
[1] = test system: B16 murine melanoma cells; test: B16 melanoma cell growth inhibition assay (MTS); type: cell-based
Method: The following day, media was changed to that containing various concentrations of HDACi or matched DMSO vehicle concentrations diluted in complete medium done in triplicate. […] Briefly, 20 μL of reagent were added per well and incubated at 37° C. for 3 hours.

[2] = test system: acetyl-α-tubulin in B16 melanoma cells; test: Tubulin acetylation Western blot assay; type: cell-based, murine; settings: 24 h, low nanomolar treatment
Method: (§1) […]. B16 melanoma cells were plated at 10^5 cells/well in 12 well plates and allowed to adhere overnight. A 50 mM stock of compound was then added by serial dilutions in complete medium to the indicated concentrations. Cells were incubated for 24 h under humidified conditions (37° C., 5% CO2). Wells were then washed with cold PBS, and cells were lysed in a buffer containing 10 mM Tris-HCl pH 8.0, 10% SDS, […], 100 mM DTT, and 1× protease inhibitor (Roche). Cells were lysed for 30 min on ice and then sonicated for 8 min (8 cycles of 30 s on/30 s rest). Cells were then boiled for 10 min with 6× gel loading buffer and resolved on 4-15% gradient gels and subsequently transferred onto nitrocellulose membranes. Membranes were blocked with 5% milk in PBS-T and detection of specific antigens using antibodies against acetyl-H3 and H3 (Cell Signaling), and acetyl-α-tubulin and α-tubulin (Sigma). Bands were detected by scanning blots with LI-COR Odyssey imaging system using both 700 and 800 channels.

[3] = test system: acetyl-H3 in B16 melanoma cells; test: Histone acetylation Western blot assay; type: cell-based, murine; settings: 24 h
Method: as §1

[4] = target: human, recombinant full-length HDAC1 (Homo sapiens (Human), UniProt Q13547); test: HDAC inhibition assay, HDAC1; type: biochemical; settings: HDAC1 and HDAC6, not selective
Chain of human, recombinant full-length HDAC1 (Q13547 whole entry): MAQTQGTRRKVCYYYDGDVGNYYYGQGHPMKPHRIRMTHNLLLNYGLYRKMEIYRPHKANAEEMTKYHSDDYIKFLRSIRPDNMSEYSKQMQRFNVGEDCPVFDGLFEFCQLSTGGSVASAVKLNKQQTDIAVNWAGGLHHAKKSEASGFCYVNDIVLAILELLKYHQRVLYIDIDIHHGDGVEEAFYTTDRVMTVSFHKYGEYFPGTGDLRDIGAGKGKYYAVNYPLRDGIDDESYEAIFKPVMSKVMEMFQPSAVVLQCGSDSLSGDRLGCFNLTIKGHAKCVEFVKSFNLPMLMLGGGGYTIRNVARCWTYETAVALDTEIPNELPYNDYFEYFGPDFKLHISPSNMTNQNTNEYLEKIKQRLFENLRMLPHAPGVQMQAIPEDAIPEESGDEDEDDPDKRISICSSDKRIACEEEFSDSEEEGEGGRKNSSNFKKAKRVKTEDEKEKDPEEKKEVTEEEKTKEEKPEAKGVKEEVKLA

[5] = test system: antigen-specific T-cell responses; test: In vivo antigen-specific T-cell responses to vaccination; design: species or system mice; settings: in vivo treatment
Excerpt: Tubastatin A-treated macrophages are better activators of […] and restore the responsiveness of anergic T-cells in vitro. […] Mechanistically, Tubastatin-A disrupt […] pathway and tip the balance towards immunogenic rather than tolerogenic macrophages.

STAT3 in APCs = test: STAT3 phosphorylation and recruitment to IL-10 gene promotor in APCs; type: cell-based
Excerpt: FIG. 26 is a flow chart depicting the experimental design of the in vitro antigen-presenting studies.
Human MCL cells display an enhanced expression of HDAC6. Disruption of HDAC6 in malignant B-cells inhibits their proliferation and is associated with induction of apoptosis. Pharmacologic or genetic disruption of HDAC6 in MCL cells augment their antigen-presenting capabilities leading to better T-cell activation and restoration of function of anergic Tcells in vitro. […] Disclosed herein is the rationale to use HDAC6 specific inhibitor(s) alone or in combination with STAT3 inhibitors in MCL.

[6] = test system: JAK2/STAT3 in B16 murine melanoma cells; test: JAK2/STAT3 phosphorylation in B16 melanoma in vivo

## COc1ccccc1NC(=O)N(CCCO)Cc1ccc(C(=O)NO)cc1 [Compound 5b, N-hydroxy-4-((1-(3-hydroxypropyl)-3-(2-methoxyphenyl)ureido)methyl)-benzamide]
[1]
  growth inhibition of B16 melanoma cell line (in words): performed very poorly in the cellular assay

## CCCCN(Cc1ccc(C(=O)NO)cc1)C(=O)Nc1ccccc1 [Compound 5g, 4-((1-butyl-3-phenylureido)methyl)-N-hydroxybenzamide]
[2]
  acetyl α-tubulin levels: dose-dependant increase of acetyl α-tubulin levels
[3]; 1 and 10 μM
  histone H3 acetylation: observable increase in histone H3 acetylation
[3]; low nanomolar treatment
  histone H3 acetylation: without a concamanent elevation of histone H3 acetylation

## COc1ccccc1NC(=O)NCc1ccc(C(=O)NO)cc1 [Compound 1]
[4]
  HDAC inhibitory activity (in words): submicromolar HDAC inhibitory activity

## O=C(NO)c1ccc(CN(CCc2ccccc2)C(=O)Nc2ccccc2)cc1 [Compound 5h, N-hydroxy-4-((1-phenethyl-3-phenylureido)methyl)benzamide]
[1]
  growth inhibition of B16 melanoma cell line (in words): capable of inhibiting the growth of B16 melanoma cell line

## CN1CCc2c(c3ccccc3n2Cc2ccc(C(=O)NO)cc2)C1 [Tubastatin A]
[5]
  antigen-specific T-cell responses to vaccination: enhances antigen-specific T-cell responses to vaccination
STAT3 in APCs
  STAT3 phosphorylation and recruitment to the IL-10 gene promotor: decreased STAT3 phosphorylation and recruitment
[6]
  JAK2/STAT3 phosphorylation: inhibits JAK2/STAT3 phosphorylation

From patent US9956192B2, “Selective histone deactylase 6 inhibitors” (H. Lee Moffitt Cancer Center and Research Institute, Inc., priority 2012, dated 2018)
